Measured values as given in patent publication US20090155349A1, “METHODS OF TREATING INFLUENZA VIRAL INFECTIONS” (priority 2006, published 2009).

Tests used:
influenza virus A/WS/33 = assay: microbe, parasite or virus in culture; assay type: cell-based
C3HA murine fibroblasts = assay: TNF-α-induced apoptosis, Rhodamine 123 fluorescence; settings: M4N 50 μM, TNF-α 20 ng/ml + cycloheximide 10 μg/ml, 6 hours
Method: C3HA murine fibroblasts were incubated with human recombinant TNF-α (20 ng/ml), cycloheximide (CHI) (10 μg/ml), or both, in the absence/presence of NDGA (25 μM) or M4N (50 μM). All compounds were added simultaneously and treatments were for 6 hours. Rhodamine 123 was added during the last half hour and fluorescence measured using a BMG POLARstar galaxy flourimeter.
More specifically, C3HA cells were cultured in Dulbecco's modified Eagles medium supplemented with 10% fetal bovine serum and maintained at 37° C. in 8% carbon dioxide. […] For apoptosis assays, cells were harvested by trypsinization, centrifuged, counted and 1.5×10^4 cells added to each well of a flat bottom 96 well microtiter plate in culture media. Cells were allowed to adhere at least six (6) hours prior to the addition to TNF (20 ng/ml), CHI (10 μg/milliliter), or both, in the absence/presence of nordihydroguaiaretic acid (25 μM) or M4N (50 μM). […] Both were dissolved in culture media. […] Rhodamine 123 is sequestered by energized mitochondria and live healthy cells display strong mitochondrial fluorescence. […] Fluorescence intensity was then determined using a BMG POLARstar galaxy microplate reader with excitation and emission wavelengths set at 492 and 538 nanometers, respectively. All points were performed in triplicate and percentage cell death was calculated from the following formula: […]

MDCK cells = assay: Toxic effects in MDCK cells

COc1ccc(C[C@@H](C)[C@@H](C)Cc2ccc(OC)c(OC)c2)cc1OC [M4N, meso-1,4-bis(3,4-dimethoxyphenyl)-2,3-dimethylbutane]
inhibitory effect on virus titer (log plot) (influenza virus A/WS/33; EM-1421 25 μM, MDCK cells): less than 1 log unit | inhibition at 25 µM (influenza virus A/WS/33; MDCK, 0.5 h, read-out: inhibition of A/WS/33 replication in MDCK cells): ~75% | inhibition of TNF-α-induced apoptosis (C3HA murine fibroblasts): strongly inhibits | highest concentration that could be used without causing toxic effects (MDCK cells): 25 µM
